Tests used:
Test in all cases: relative viability (nuclei count vs DMSO), 5 days (fraction); higher = more cells survive
[1] = compound: CC(C)(C)c1nc(-c2cccc(NS(=O)(=O)c3c(F)cccc3F)c2F)c(-c2ccnc(N)n2)s1 [Dabrafenib] + C[C@@H](Oc1cc(-c2cnn(C3CCNCC3)c2)cnc1N)c1c(Cl)ccc(F)c1Cl [Crizotinib] (partner 1 µM)
Procedure, shortened: (§1)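 Lung cancer cell lines in 1536-well plates got either a single drug or a fixed anchor-drug dose together with five library-drug doses (not always all listed) in √10 steps, by pin tool, on the day after seeding. Nuclei were counted after 5 days, and relative viability is the treated-to-vehicle ratio of nuclei counts. Values are medians of duplicate plates.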

[2] = compound: NC(=O)c1ccc(N(C(N)=O)c2c(F)cccc2F)nc1-c1ccc(F)cc1F [VX-702] + Cc1nc(Nc2ncc(C(=O)Nc3c(C)cccc3Cl)s2)cc(N2CCN(CCO)CC2)n1 [Dasatinib] (partner 0.075 µM)
Procedure, shortened: as §1

[3] = compound: NC(=O)c1ccc(N(C(N)=O)c2c(F)cccc2F)nc1-c1ccc(F)cc1F [VX-702] + CC1(C)CCC(c2ccc(Cl)cc2)=C(CN2CCN(c3ccc(C(=O)NS(=O)(=O)c4ccc(N[C@H](CCN5CCOCC5)CSc5ccccc5)c(S(=O)(=O)C(F)(F)F)c4)cc3)CC2)C1 [Navitoclax] (partner 0.5 µM)
Procedure, shortened: as §1

[4] = compound: NC(=O)c1ccc(N(C(N)=O)c2c(F)cccc2F)nc1-c1ccc(F)cc1F [VX-702] + CCNC(=O)c1noc(-c2cc(C(C)C)c(O)cc2O)c1-c1ccc(CN2CCOCC2)cc1 [Luminespib] (partner 0.01 µM)
Procedure, shortened: as §1

Row | Cell Line | relative viability ([1]; first compound 0.003 µM) | relative viability ([1]; first compound 0.009487 µM) | relative viability ([1]; first compound 0.03 µM) | relative viability ([1]; first compound 0.09487 µM) | relative viability ([1]; first compound 0.3 µM) | relative viability ([2]; first compound 0.02 µM) | relative viability ([2]; first compound 0.2 µM) | relative viability ([2]; first compound 0.6325 µM) | relative viability ([2]; first compound 2 µM) | relative viability ([3]; first compound 0.02 µM) | relative viability ([3]; first compound 0.2 µM) | relative viability ([3]; first compound 0.6325 µM) | relative viability ([3]; first compound 2 µM) | relative viability ([4]; first compound 0.02 µM) | relative viability ([4]; first compound 0.2 µM) | relative viability ([4]; first compound 0.6325 µM) | relative viability ([4]; first compound 2 µM)
1 | NCI-H2023 | 0.745 | 0.651 | 0.651 | 0.876 | 0.802 | 0.534 | 0.724 | 0.576 | 0.662 | 1.02 | 1.01 | 0.89 | 1.03 | 0.692 | 0.829 | 0.826 | 0.974
2 | NCI-H1437 | 0.935 | 0.902 | 0.906 | 0.896 | 0.978 | 0.407 | 0.34 | 0.439 | 0.467 | 1.07 | 1.08 | 1.23 | 1.29 | 1.17 | 1.14 | 1.14 | 1.4
3 | HCC-827 | 0.873 | 0.945 | 0.864 | 0.696 | 0.942 | 0.274 | 0.342 | 0.271 | 0.145 | 1.01 | 0.988 | 0.891 | 0.939 | 0.449 | 0.638 | 0.504 | 0.273
4 | HARA | 0.975 | 1.04 | 1.01 | 0.855 | 1.11 | 0.224 | 0.268 | 0.36 | 0.329 | 1.08 | 1.14 | 1.05 | 1.09 | 0.743 | 0.75 | 0.58 | 0.947
5 | NCI-H838 | 0.858 | 0.905 | 0.759 | 0.829 | 0.979 | 0.348 | 0.285 | 0.304 | 0.339 | 1.25 | 1.13 | 1.19 | 1.36 | 0.332 | 0.333 | 0.273 | 0.299
6 | NCI-H2085 | 0.97 | 0.881 | 0.838 | 0.919 | 0.873 | 0.209 | 0.339 | 0.207 | 0.27 | 1.21 | 1.24 | 1.12 | 1.2 | 0.479 | 0.462 | 0.477 | 0.41
7 | COR-L23 | 0.644 | 0.627 | 0.633 | 0.607 | 0.55 | 0.523 | 0.475 | 0.559 | 0.673 | 0.968 | 0.979 | 1.18 | 1.27 | 0.749 | 0.719 | 0.688 | 0.761
8 | NCI-H322M |  | 1.09 |  | 0.876 | 0.941 | 0.241 | 0.265 | 0.247 | 0.249 | 1.2 | 1.02 | 1.19 | 1.28 | 0.856 | 0.917 | 0.759 | 0.88
9 | NCI-H1915 | 0.994 | 0.893 | 0.721 | 0.752 | 0.731 | 0.328 | 0.282 | 0.281 | 0.327 | 0.766 | 0.725 | 0.849 | 0.916 | 0.84 | 0.739 | 0.765 | 0.916
